Assay results: patent publication US10202368B2, “CXCR7 receptor modulators” (IDORSIA PHARMACEUTICALS LTD, priority 2014, dated 2019)
pEC50: −log10 of the molar value.

Biological target: CXCR7 (Homo sapiens (Human), UniProt P25106)
Test: PathHunter CHO-K1 CXCR7 β-arrestin assay (agonistic activity)
Assay type: cell-based
Settings: β-arrestin recruitment in PathHunter CHO-K1 CXCR7 β-arrestin cells, 90 minutes at 37° C., geometric mean values
How it was run: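 The enzyme-fragment complementation format pairs ProLink-tagged CXCR7 with EA–β-arrestin 2 in CHO-K1 cells, seeded at 5000/well for 24 h and serum-starved in OPTIMEM 3–4 h. Compounds were added in HBSS/20 mM HEPES/0.2% BSA for 90 min at 37 °C, followed by 1 h detection at room temperature and chemiluminescence read-out. EC50 is the geometric mean of several measurements.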

CXCR7, sequence (P25106 whole entry): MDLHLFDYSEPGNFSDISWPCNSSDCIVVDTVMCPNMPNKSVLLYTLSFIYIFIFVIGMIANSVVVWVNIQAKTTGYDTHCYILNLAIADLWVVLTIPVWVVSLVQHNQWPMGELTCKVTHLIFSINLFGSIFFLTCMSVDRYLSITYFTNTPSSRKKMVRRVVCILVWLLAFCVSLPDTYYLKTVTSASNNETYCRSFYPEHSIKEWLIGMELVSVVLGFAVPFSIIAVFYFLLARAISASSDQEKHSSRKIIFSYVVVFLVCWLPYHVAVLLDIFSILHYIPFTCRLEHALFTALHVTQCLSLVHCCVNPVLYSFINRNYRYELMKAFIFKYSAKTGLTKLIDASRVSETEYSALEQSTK
CXCR7, sequence (P32121 whole entry partner): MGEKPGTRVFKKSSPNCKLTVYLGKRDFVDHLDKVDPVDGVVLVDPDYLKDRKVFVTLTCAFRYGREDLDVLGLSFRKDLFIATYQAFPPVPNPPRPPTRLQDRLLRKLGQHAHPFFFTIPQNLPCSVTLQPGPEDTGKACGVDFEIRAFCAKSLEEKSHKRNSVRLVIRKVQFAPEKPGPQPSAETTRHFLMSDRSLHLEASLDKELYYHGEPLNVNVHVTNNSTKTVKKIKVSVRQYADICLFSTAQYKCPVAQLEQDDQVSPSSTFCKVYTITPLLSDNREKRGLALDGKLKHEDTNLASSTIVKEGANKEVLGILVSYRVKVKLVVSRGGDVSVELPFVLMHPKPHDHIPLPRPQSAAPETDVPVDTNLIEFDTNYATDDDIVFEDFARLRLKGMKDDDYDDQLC

Structure (SMILES)	pEC50
CCN1CCOc2c(cccc2NCC(=O)N(CCN2CCCC2)Cc2ncccc2Cl)C1 [Example 75, N-(3-Chloro-pyridin-2-ylmethyl)-2-(4-ethyl-2,3,4,5-tetrahydro-benzo[f][1,4]oxazepin-9-ylamino)-N-(2-pyrrolidin-1-yl-ethyl)-acetamide]	7.72
CCN1CCOc2c(cccc2NCC(=O)N(CCN(C)C)Cc2cnc(C(F)(F)F)s2)C1 [Example 76, N-(2-Dimethylamino-ethyl)-2-(4-ethyl-2,3,4,5-tetrahydro-benzo[f][1,4]oxazepin-9-ylamino)-N-(2-trifluoromethyl-thiazol-5-ylmethyl)-acetamide]	6.37
CCN1CCOc2c(cccc2NCC(=O)N(CCN(C)C)Cc2c(C(F)(F)F)nn(C)c2Cl)C1 [Example 77, N-(5-Chloro-1-methyl-3-trifluoromethyl-1H-pyrazol-4-ylmethyl)-N-(2-dimethylamino-ethyl)-2-(4-ethyl-2,3,4,5-tetrahydro-benzo[f][1,4]oxazepin-9-ylamino)-acetamide]	6.55
CCN1CCOc2c(cccc2NCC(=O)N(CCN(C)C(=O)OC(C)(C)C)Cc2ncccc2Cl)C1 [Example 78, (2-{(3-Chloro-pyridin-2-ylmethyl)-[2-(4-ethyl-2,3,4,5-tetrahydro-benzo[f][1,4]oxazepin-9-ylamino)-acetyl]-amino}-ethyl)-methyl-carbamic acid tert-butyl ester]	6.62
O=C(CNc1cccc2c1OCCN(CC1CC1)C2)N(CCN1CCCC1)Cc1ncccc1C(F)(F)F [Example 82, 2-(4-Cyclopropylmethyl-2,3,4,5-tetrahydro-benzo[f][1,4]oxazepin-9-ylamino)-N-(2-pyrrolidin-1-yl-ethyl)-N-(3-trifluoromethyl-pyridin-2-ylmethyl)-acetamide]	8.70
CC(C)(C)NCCN(Cc1ccccc1C(F)(F)F)C(=O)CNc1cccc2c1OCCN(CC1CC1)C2 [Example 83, N-(2-tert-Butylamino-ethyl)-2-(4-cyclopropylmethyl-2,3,4,5-tetrahydro-benzo[f][1,4]oxazepin-9-ylamino)-N-(2-trifluoromethyl-benzyl)-acetamide]	8.52
CN(C)CCN(Cc1ccccc1C(F)(F)F)C(=O)CNc1cccc2c1OCCN(CC1CC1)C2 [Example 84, 2-(4-Cyclopropylmethyl-2,3,4,5-tetrahydro-benzo[f][1,4]oxazepin-9-ylamino)-N-(2-dimethylamino-ethyl)-N-(2-trifluoromethyl-benzyl)-acetamide]	8.40
CC(C)NCCN(Cc1ccccc1C(F)(F)F)C(=O)CNc1cccc2c1OCCN(CC1CC1)C2 [Example 85, 2-(4-Cyclopropylmethyl-2,3,4,5-tetrahydro-benzo[f][1,4]oxazepin-9-ylamino)-N-(2-isopropylamino-ethyl)-N-(2-trifluoromethyl-benzyl)-acetamide]	8.52
CN(C)CCN(Cc1ccccc1Cl)C(=O)CNc1cccc2c1CN(CC1CC1)CCO2 [Example 86, N-(2-Chloro-benzyl)-2-(4-cyclopropylmethyl-2,3,4,5-tetrahydro-benzo[f][1,4]oxazepin-6-ylamino)-N-(2-dimethylamino-ethyl)-acetamide]	7.85
Cc1cccnc1CN(CCN(C)C)C(=O)CNc1cccc2c1CN(CC1CC1)CCO2 [Example 87, 2-(4-Cyclopropylmethyl-2,3,4,5-tetrahydro-benzo[f][1,4]oxazepin-6-ylamino)-N-(2-dimethylamino-ethyl)-N-(3-methyl-pyridin-2-ylmethyl)-acetamide]	7.64
CN(C)CCN(Cc1cccc(Cl)c1Cl)C(=O)CNc1cccc2c1CN(CC1CC1)CCO2 [Example 88, 2-(4-Cyclopropylmethyl-2,3,4,5-tetrahydro-benzo[f][1,4]oxazepin-6-ylamino)-N-(2,3-dichloro-benzyl)-N-(2-dimethylamino-ethyl)-acetamide]	7.82
CC(C)NCCN(Cc1ccccc1C(F)(F)F)C(=O)CNc1cccc2c1CN(CC1CC1)CCO2 [Example 89, 2-(4-Cyclopropylmethyl-2,3,4,5-tetrahydro-benzo[f][1,4]oxazepin-6-ylamino)-N-(2-isopropylamino-ethyl)-N-(2-trifluoromethyl-benzyl)-acetamide]	8.30
CC(C)NCCN(Cc1ncccc1C(F)(F)F)C(=O)CNc1cccc2c1CN(CC1CC1)CCO2 [Example 90, 2-(4-Cyclopropylmethyl-2,3,4,5-tetrahydro-benzo[f][1,4]oxazepin-6-ylamino)-N-(2-isopropylamino-ethyl)-N-(3-trifluoromethyl-pyridin-2-ylmethyl)-acetamide]	8.15
CC(C)(C)NCCN(Cc1ccccc1Cl)C(=O)CNc1cccc2c1CN(CC1CC1)CCO2 [Example 91, N-(2-tert-Butylamino-ethyl)-N-(2-chloro-benzyl)-2-(4-cyclopropylmethyl-2,3,4,5-tetrahydro-benzo[f][1,4]oxazepin-6-ylamino)-acetamide]	8.10
CC(C)(C)NCCN(Cc1ncccc1Cl)C(=O)CNc1cccc2c1CN(CC1CC1)CCO2 [Example 92, N-(2-tert-Butylamino-ethyl)-N-(3-chloro-pyridin-2-ylmethyl)-2-(4-cyclopropylmethyl-2,3,4,5-tetrahydro-benzo[f][1,4]oxazepin-6-ylamino)-acetamide]	8.00
CC(C)(C)NCCN(Cc1ccccc1C(F)(F)F)C(=O)CNc1cccc2c1CN(CC1CC1)CCO2 [Example 93, N-(2-tert-Butylamino-ethyl)-2-(4-cyclopropylmethyl-2,3,4,5-tetrahydro-benzo[f][1,4]oxazepin-6-ylamino)-N-(2-trifluoromethyl-benzyl)-acetamide]	8.52
CC(C)(C)NCCN(Cc1ncccc1C(F)(F)F)C(=O)CNc1cccc2c1CN(CC1CC1)CCO2 [Example 94, N-(2-tert-Butylamino-ethyl)-2-(4-cyclopropylmethyl-2,3,4,5-tetrahydro-benzo[f][1,4]oxazepin-6-ylamino)-N-(3-trifluoromethyl-pyridin-2-ylmethyl)-acetamide]	8.40
